{
  "source": "patent US20250092001A1",
  "about": "“NOVEL EXCITATORY AMINO ACID GLUTAMATE TRANSPORT MODULATORS AND METHODS USING THE SAME” (Drexel University, priority 2022, published 2025)",
  "key": {"[1]": {"system": "PD rats", "assay": "Elevated plus maze (EPM)", "assay_type": "in vivo, rat", "settings": "male PD rats; 4 mg/kg; 10 min post treatment", "description": "Referring to FIGS. 11-13, in the elevated plus maze test, male PD rats were treated with either saline or GTS467 (4 mg/kg). 10 min post treatment, the rats were placed in the middle of the elevated plus maze (EPM). Time spent in closed and open arms were recorded for 5 min. Frequency of entries in open and close arms was recorded."}, "[2]": {"system": "PD rats (unilaterally lesioned rodent model of PD)", "assay": "5-Choice Serial Reaction Time Task (5CSRTT)", "assay_type": "in vivo, rat", "settings": "compared to saline", "from_the_text": "FIG. 12 lists the training schedule for 5CSRTT (5-Choice Serial Reaction Time Task) assay with criteria for success, in accordance with some embodiments.\nFIG. 13: Schematic representation of the 5CSRTT assay, in accordance with some embodiments. Rats were trained to receive food reward for a correct nose poke response to a signal light (correct trial shown in arrow connecting 1 and 3). Incorrect trials (the arrows connecting 2/3 to 1) or omissions (the arrow connecting 4 to other boxes) results in time out indicated by darkness with no Cue lights. Trial resets with variable intertrial intervals. Nose pokes made during inter trial interval (ITI) are recorded as premature responses (PMR) that codes for impulsive behavior"}, "[3]": {"system": "Drosophila model of Huntington's disease", "assay": "Larval olfactory associative learning test", "assay_type": "in vivo", "settings": "Elav x Htt larvae; 3.53 nM GT467, […] GT511", "description": "FIG. 7A illustrates certain aspects of a larval olfactory associative learning used to test learning and memory. In FIG. 7A, larvae were trained with either a reinforcer solution containing sucrose (“LIN/SUC”) or a control of distilled water (“LIN/DW”). The trained larvae were then transferred to a dish having test odorant placed on one side and a control on the opposite side. […] The ΔRI (difference between LIN/SUC and LIN/DW performance scores) were then calculated for the high performers (FIG. 7B), low performers (FIG. 7C) and non-performers (FIG. 7D). […] Referring to FIG. 7A, Drosophila larvae were trained with either a reinforcer solution containing sucrose (“LIN/SUC”) or a control of distilled water (“LIN/DW”). The trained larvae were then transferred to a dish having test odorant placed on one side and a control on the opposite side. The ΔRI were then calculated for the high performers (FIG. 7B), low performers (FIG. 7C) and non-performers (FIG. 7D)."}, "[4]": {"system": "R6/2 mice (Huntington disease model)", "assay": "Open field locomotion test", "assay_type": "in vivo, mouse", "settings": "GTS467 2, 4, and 10 mg/kg", "description": "FIG. 9A depicts the results of a locomotion test. In the locomotion test of FIG. 9A, wildtype and R6/2 mice treated with vehicle or different doses of GTS467 (2, 4, and 10 mg/kg) or ceftriaxone (200 mg/kg) were subjected to the open field test to evaluate their locomotor abilities in a 44×44 cm and 43×43 cm square open field arena. Animals were placed individually in the open field arena and behavior was recorded for a period of 5 minutes under dim light and low noise conditions. Animal behavior was recorded using an overhead camera and the distance moved was recorded and quantified using the Noldus ethovision XT-14 software. FIG. 9B depicts the results of a memory task test. Referring to FIG. 9B, to test for memory impairment a novel object recognition assay was performed. A 44×44 cm square shaped open field arena was used to perform this test at week 12 and week 15. The behavioral evaluation was performed in 2 sets, each set having equal number of animals. […] The behavior was recorded under dim light and low noise conditions using an overhead camera. Cumulative duration with both the objects, total object exploration (sec), distance travelled (cm) was quantified using the Noldus ethovision XT 14 software. […]"}, "[5]": {"system": "NR2A, NR2B, NR1", "assay": "Western blot of cortex and striatum of treated PD rats: NMDA receptor subunits", "assay_type": "in vivo, rat", "description": "Cortex and striatum were separately collected, and homogenates were prepared. Homogenates were centrifuged to obtain the protein extract in membrane and cytoplasmic fraction. Protein was estimated for each individual samples. Protein lysates were mixed with 6× loading buffer (5:1 ratio) and were heated (95° C. for 5 min). 20 μg protein was loaded to Tris-Glycine Mini gel for separation at […] for 2 h. Separated proteins were transferred to a PVDF membrane. 3% BSA was used for blocking the nontarget proteins to avoid noise. Membrane was incubated with primary Ab overnight at 4° C. followed by secondary Ab incubation for 3 h at room temperature. The protein bands were detected using ECL methods. The bands were quantified using Image J software."}},
  "data": [
    {"smiles": "COc1ccc(NC(=O)C(=O)NCC(c2ccccc2)N2CCN(C)CC2)cc1", "note": "(centres unmarked) [GT467, N1-(4-methoxyphenyl)-N2-(2-(4-methylpiperazin-1-yl)-2-phenylethyl)oxalamide]", "values": [
      {"measurement": "Anxiety (time spent in open vs. closed arm of EPM)", "setting": "[1]", "result": "did not induce anxiety"},
      {"measurement": "Omissions (OM)", "setting": "[2]", "result": "trend towards reducing omissions"},
      {"measurement": "Percentage of correct choices (CR), cognitive performance", "setting": "[2]", "result": "improves cognitive performance"},
      {"measurement": "Premature responses (PMR), impulsivity", "setting": "[2]", "result": "reduces impulsivity"},
      {"measurement": "Olfactory learning performance (ΔRI)", "setting": "[3]", "result": "improved significantly"},
      {"measurement": "Distance moved", "setting": "[4]", "result": "significantly increased"},
      {"measurement": "NR1 expression", "setting": "[5]; cortex (CRTX)", "result": "reduced in CRTX"},
      {"measurement": "NR2A, 2B and NR1 expressions", "setting": "[5]; synaptic level", "result": "elevation of NR2A, 2B and NR1 expressions"}
    ]}
  ]
}
